The source of these data is patent US6737418B2, “Aryl substituted pyrazoles, imidazoles, oxazoles, thiazoles and pyrroles, and the use thereof” (Euro-Celtique S.A., priority 1999, dated 2004).

In assay [1] the test system is maximal electroshock-induced seizures (MES). Briefly: Maximum electroshock seizure test (MES), oral administration to mice. It counts as in vivo. The note with it: 30 minutes before the test, dose protecting 50% of animals; for ED50: Mus musculus, po. From the text:
The compounds of the present invention may be tested for in vivo anticonvulsant activity after i.v., p.o. or i.p. injection using a number of anticonvulsant tests in mice, including the maximum electroshock seizure test (MES). Maximum electroshock seizures were induced in male NSA mice weighing between 15-20 g and male Sprague-Dawley rats weighing between 200-225 g by application of current (50 mA, 60 pulses/sec, 0.8 msec pulse width, 1 sec duration, D.C., mice; 99 mA, 125 pulses/sec, 0.8 msec pulse width, 2 sec duration, D.C., rats) using a Ugo Basile ECT device (Model 7801). Mice were restrained by gripping the loose skin on their dorsal surface and saline-coated corneal electrodes were held lightly against the two corneae. Rats were allowed free movement on the bench top and ear-clip electrodes were used. […] A tonic seizure was defined as a hindlimb extension in excess of 90 degrees from the plane of the body. Results were treated in a quantal manner.
The ability of 3-[4-(2,4-difluorophenoxy)phenyl]-1H-pyrazole-1-carboxamide to block maximal electroshock-induced seizures (MES) was determined as described earlier.
3-[4-(2,4-Difluorophenoxy)phenyl]-1H-pyrazole-1-carboxamide was administered p.o. to mice 30 minutes before the test procedure.
The following compounds in Table 1 were tested in MES as described for 3-[4-(2,4-difluorophenoxy)phenyl]-1H-pyrazole-1-carboxamide: […]

In assay [2] the target is T1, hSkM1 isoform of Na+ channels (Homo sapiens, UniProt P35499).
T1 construct: expressed in transfected cells
T1 sequence (P35499 whole entry, canonical isoform): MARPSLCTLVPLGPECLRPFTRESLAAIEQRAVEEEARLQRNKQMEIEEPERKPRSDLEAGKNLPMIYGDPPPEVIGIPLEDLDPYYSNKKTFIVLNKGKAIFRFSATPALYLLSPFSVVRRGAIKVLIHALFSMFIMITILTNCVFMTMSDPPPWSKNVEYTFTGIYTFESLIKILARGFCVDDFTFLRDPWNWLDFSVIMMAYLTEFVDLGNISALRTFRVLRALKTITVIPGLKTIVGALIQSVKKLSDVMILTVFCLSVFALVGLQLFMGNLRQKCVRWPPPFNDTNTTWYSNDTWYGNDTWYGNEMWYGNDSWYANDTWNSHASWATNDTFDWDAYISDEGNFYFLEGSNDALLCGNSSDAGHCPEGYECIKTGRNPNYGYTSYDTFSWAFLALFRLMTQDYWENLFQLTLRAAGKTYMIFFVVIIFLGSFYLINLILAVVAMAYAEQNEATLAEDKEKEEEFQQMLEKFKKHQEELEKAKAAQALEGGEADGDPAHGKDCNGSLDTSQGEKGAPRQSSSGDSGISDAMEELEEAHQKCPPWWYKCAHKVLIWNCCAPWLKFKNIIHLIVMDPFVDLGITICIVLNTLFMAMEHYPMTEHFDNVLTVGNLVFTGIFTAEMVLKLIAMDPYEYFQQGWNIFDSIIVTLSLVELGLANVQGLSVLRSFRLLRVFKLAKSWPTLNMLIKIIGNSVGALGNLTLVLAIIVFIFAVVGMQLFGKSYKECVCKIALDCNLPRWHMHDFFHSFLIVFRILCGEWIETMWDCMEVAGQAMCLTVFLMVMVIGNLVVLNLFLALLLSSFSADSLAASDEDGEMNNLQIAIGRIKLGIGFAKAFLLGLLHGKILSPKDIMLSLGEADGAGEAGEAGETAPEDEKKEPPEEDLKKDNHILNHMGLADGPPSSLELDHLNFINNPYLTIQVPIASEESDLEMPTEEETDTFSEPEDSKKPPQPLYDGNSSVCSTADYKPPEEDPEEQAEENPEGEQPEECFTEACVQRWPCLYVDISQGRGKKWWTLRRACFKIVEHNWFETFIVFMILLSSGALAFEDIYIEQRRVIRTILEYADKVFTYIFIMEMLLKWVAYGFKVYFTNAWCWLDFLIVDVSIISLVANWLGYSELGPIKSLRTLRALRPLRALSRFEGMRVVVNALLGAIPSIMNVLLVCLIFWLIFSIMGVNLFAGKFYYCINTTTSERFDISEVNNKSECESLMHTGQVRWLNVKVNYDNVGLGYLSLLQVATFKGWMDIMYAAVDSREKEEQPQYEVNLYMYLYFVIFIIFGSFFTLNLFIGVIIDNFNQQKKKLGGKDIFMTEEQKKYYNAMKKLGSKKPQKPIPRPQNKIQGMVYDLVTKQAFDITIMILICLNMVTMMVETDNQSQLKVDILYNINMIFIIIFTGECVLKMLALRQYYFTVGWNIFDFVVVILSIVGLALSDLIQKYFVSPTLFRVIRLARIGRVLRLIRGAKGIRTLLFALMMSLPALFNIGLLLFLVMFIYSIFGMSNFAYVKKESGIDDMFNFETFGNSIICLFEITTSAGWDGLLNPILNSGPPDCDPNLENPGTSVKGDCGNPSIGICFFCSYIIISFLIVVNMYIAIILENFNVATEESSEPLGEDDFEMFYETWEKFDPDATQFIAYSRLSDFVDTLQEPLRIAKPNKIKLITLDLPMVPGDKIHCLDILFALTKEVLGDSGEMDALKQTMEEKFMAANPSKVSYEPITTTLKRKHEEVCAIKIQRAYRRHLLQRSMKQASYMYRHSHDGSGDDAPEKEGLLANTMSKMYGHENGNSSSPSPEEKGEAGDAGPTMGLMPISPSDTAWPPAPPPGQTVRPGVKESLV
The experiment in a line: Electrophysiological Assay 1: whole-cell patch-clamp of Na+ currents in HEK-293 cells expressing hSkM1. It counts as cell-based. The note with it: for pKi: HEK-293 cells stably expressing hSkM1, concentration that produces half maximal inhibition. As for the experimental part: Cell preparation: HEK-293 cells stably expressing the hSkM1 isoform of Na^+ channels (generous gift from Dr. A. L. George, Vanderbilt University Medical School) were cultured using standard techniques, as described previously (Verdoorn, T. A, et al., Neuron 4:919-928 (1990)). For electrophysiology, cells were plated onto 35 mm Petri dishes (pre-coated with poly-D-lysine) at a density of 1:40 on the day of re-seeding from confluent cultures. Our experience has been that cells are suitable for recordings for 2-3 days after plating.
Patch-clamp recordings of voltage-sensitive Na^+ currents: Whole-cell voltage-clamp recordings were made using conventional patch-clamp techniques (Hamill et al., Pfluegers Arch. 391:85-100 (1981)) with an Axopatch 200A amplifier (Axon Instruments, Foster City, Calif.). […] The recording chamber was continuously superfused with the external solution (150 mM NaCl, 5.4 mM KCl, 1.8 mM CaCl2, 1 mM MgCl2, 10 mM HEPES, 10 mM glucose, pH 7.4 (NaOH)) at a speed of about 1 mL/min. Recording pipettes were pulled from thick-walled capillaries (WPI, Sarasota, Fla.) and fire-polished. The pipette resistances ranged from 1 to 3 MΩ when the pipettes were filled with internal solution containing (in mM): 110 CsF, 10 NaCl, 5 MgCl2, 11 EGTA, 10 HEPES, pH adjusted to 7.4 with CsOH. Osmolality was set with a difference of 15-20 mmol/kg between external and internal solutions (lower inside the cell). Drugs and intervening wash-outs were applied through a linear array of flow pipes (Drummond Microcaps, 2 μL, 64-mm length). Compounds are dissolved in dimethylsulfoxide (DMSO) to make a 30 mM stock solution, which was subsequently diluted into the external solution to give final concentrations of 0.1-100 μM. At the highest (1%) concentration, DMSO inhibited the size of Na^+ current only slightly. Currents were recorded at room temperature (22-25° C.), filtered at 5 kHz with an active 8-pole Bessel filter (Frequency Devices, Haverhill, Mass.), digitized at 10-50 μs intervals, and stored using Digidata 1200 analog/digital interface with Pclamp6/Clampex software (Axon Instruments). Series resistance was cancelled typically by ˜75% when necessary. The inhibitory potency of drugs was assessed by measuring reductions in the peak amplitude of Na^+ currents induced by increasing concentrations of compounds tested. Na^+ currents were elicited by stepping membrane voltage from holding potentials over the range −100 mV to −50 mV, to a pulse potential of −10 mV. The test pulse duration was 5-10 msec, repeated at a frequency≦1 Hz. Concentration-inhibition curves were fitted with equation 1:
I/Icontrol=1/(1+([compound]/IC50)) Eq. 1
where Icontrol is the maximal Na^+ current in the absence of antagonist, [compound] is the drug concentration, and IC50 is the concentration of compound that produces half maximal inhibition.
The apparent antagonist dissociation constant (Kd) of this compound for inactivated sodium channels is ˜8 nM.
The Ki (the concentration of a compound that produces half maximal inhibition) value for 3-[4-(4-fluorophenoxy)phenyl]-1H-pyrazole-1-carboxamide and other tested compounds are presented in Table 2.

The target of assay [3] is rBIIA isoform of Na+ channels (Rattus norvegicus, UniProt P04775). Briefly: Electrophysiological Assay 2: whole-cell patch-clamp of Na+ currents in HEK-293 cells expressing rBIIA. As to conditions: HEK-293 cells stably expressing rBIIA; concentration that produces half maximal inhibition. In kind it is cell-based. As for the experimental part: Cell preparation: HEK-293 (NaIIA-B2) cell line stably expressing the rBIIA isoform of Na^+ channels was established in-house. The cells were cultured using standard techniques, as described previously (Verdoorn, T. A, et al., Neuron 4:919-928 (1990)). For electrophysiology, cells were plated onto poly-D-lysine pre-coated Cellware 35 mm Petri dishes (BIOCOAT, Becton Dickinson) at a density of ˜10^4 cells/dish on the day of re-seeding from confluent cultures. Our experience has been that cells are suitable for recordings for 2-3 days after plating.
Patch-clamp recordings of voltage-sensitive Na^+ currents. Whole-cell voltage-clamp recordings were made using conventional patch-clamp techniques (Hamill et al., Pfluegers Arch. 391:85-100 (1981)) with an Axopatch 200A amplifier (Axon Instruments, Foster City, Calif.). The recording chamber was continuously superfused with the external solution (150 mM NaCl, 5.4 mM KCl, 1.8 mM CaCl2, 1 mM MgCl2, 10 mM HEPES, 10 mM glucose, pH7.4 adjusted with NaOH, osmolality ˜320 mmol/kg) at a speed of about 1 mL/min. Recording pipettes were pulled from the thick-walled capillaries (WPI, Sarasota, Fla.) and fire-polished. The pipette resistances ranged from 1 to 3 MΩ when the pipettes were filled with internal solution containing (in mM): 130 CsF, 20 NaCl, 2 MgCl2, 10 EGTA, 10 HEPES, pH adjusted to 7.4 with CsOH, osmolality ˜310 mmol/kg. Drugs and intervening wash-outs were applied through a linear array of flow pipes (Drummond Microcaps, 2 μL, 64-mm length). Compounds are dissolved in dimethylsulfoxide (DMSO) to make a 30 mM stock solution, which was subsequently diluted into the external solution to give final concentrations of 0.1-100 μM. At the highest (1%) concentration, DMSO inhibited the size of Na^+ current only slightly. Currents were recorded at room temperature (22-25° C.), filtered at 3 kHz with an active 8-pole Bessel filter (Frequency Devices, Haverhill, Mass.), digitized at 10-50 μs intervals, and stored using Digidata 1200 analog/digital interface with Pclamp6/Clampex software (Axon Instruments). Series resistance was cancelled typically by ˜75% when necessary.
The following voltage pulse protocols were used to assess the potency and kinetics of inhibition of the Na^+ channels by the compounds (FIG. 1). [drawing 33]
FIG. 1. Voltage pulse protocols. A. IV-curves. C. Steady-state inactivation. B. Repriming kinetics. D. Time course of binding.
Current-voltage relationship (IV-curve), protocol A, was used to report the voltage at which the maximal inward Na^+ current is achieved. This voltage was used throughout the experiment as testing voltage, Vt. The steady-state inactivation (or, availability) curve, protocol C, was used to get the voltage at which almost complete (≧95%) inactivation of Na^+ channels occurs; it served as voltage for conditioning prepulse, Vc, throughout the experiment. Protocol B reports how fast the channels recover from inactivation at hyperpolarized voltages. This permitted us to set up the duration of the hyperpolarization gap which is used in measurement of the kinetics of binding of compounds to inactivated Na^+ channels (protocol D). Channel repriming under control conditions was fast (≧90% recovery during first 5-10 ms). If a drug substantially retards the repriming process then it becomes possible (protocol D) to accurately measure the kinetics of binding of the inhibitor to inactivated channels as well as the steady-state affinity (k+ and Ki). To estimate k+ values the reduction in peak currents in successive trials with varying pre-pulse duration was plotted as a function of pre-pulse duration and the time constant (τ) measured by mono-exponential fit. A plot of 1/τ as a function of antagonist concentration then allowed calculating of the macroscopic binding rates of the antagonists. To determine Ki values the partial inhibition curves measured by fractional responses in steady-state were fitted with the logistic equation: […]

pKd, pKi: −log10 of the molar value.

Compound `Fc1ccc(Oc2ccc(-c3cc[nH]n3)cc2)cc1` [3-[4-(4-Fluorophenoxy)phenyl]-1H-pyrazole] came in with an ED50 in assay [1] of 8 mg/kg.
Take `NC(=O)c1nc(-c2ccc(Oc3ccc(F)cc3)c(F)c2)cs1` [4-[4-(4-Fluorophenoxy)-3-fluorophenyl]-thiazole-2-carboxamide]: the pKi in assay [2] is 7.70.
`NC(=O)c1ccc(-c2ccc(Oc3ccc(F)cc3)cc2)[nH]1` [5-[4-(4-Fluorophenoxy)phenyl]-pyrrole-2-carboxamide] registered an ED50 in assay [1] of 10 mg/kg.
As to `O=[N+]([O-])c1ccc(Oc2ccc(-c3cc[nH]n3)cc2)cc1` [5-[4-(4-nitrophenoxy)phenyl]-1H-pyrazole, 3-[4-(4-nitrophenoxy)phenyl]-1H-pyrazole], in assay [2], the pKi was 6.96.
In the case of `CS(=O)(=O)NCCn1nccc1-c1ccc(Oc2ccc(F)cc2)cc1` [1-[2-(Methanesulfonylamino)ethyl]-5-[4-(4-fluorophenoxy)phenyl]-1H-pyrazole], in assay [1], the 50% effective dose (ED50) worked out at 7.5 mg/kg.
With `NC(=O)n1ccc(-c2ccc(Oc3ccc(F)cc3)cc2)n1` [3-[4-(4-Fluorophenoxy)phenyl]-1H-pyrazole-1-carboxamide], it took a dose of 7 mg/kg to reach the 50% effect level in assay [1] (ED50). Further, in assay [2], the pKi was 8.10. Also, the “inhibition of voltage-gated sodium currents” value in assay [2] (HEK-293 cells stably expressing hSkM1 sodium channels) is on record as “dose-dependent inhibition”. In addition, the pKd in assay [2] (HEK-293 cells stably expressing hSkM1 sodium channels, read-out: apparent antagonist dissociation constant (Kd) for inactivated sodium channels) is roughly 8.10. Also, the “potency towards Na+ channels in their resting states” value in assay [2] (hSkM1, blocking effect highly sensitive to the holding voltage) was “weak potency”.
Regarding `CC(=O)N(C)n1nccc1-c1ccc(Oc2ccc(F)cc2)cc1` [2-(N-methylacetamido)-3-[4-(4-fluorophenoxy)phenyl]-2H-pyrazole], the ED50 in assay [1] is 2.9 mg/kg.
`CN1CCN(C(=O)Cn2nccc2-c2ccc(Oc3ccc(F)cc3)cc2)CC1` [2-{5-[4-(4-Fluorophenoxy)phenyl]-pyrazol-1-yl}-1-(4-methyl)piperazine-1-yl-ethanone]: the “MES p.o. ED50” value in assay [1] is recorded as 10 mg/kg.
`NC(=O)n1ccc(-c2ccc(Oc3ccc(F)cc3F)cc2)n1` [3-[4-(2,4-Difluorophenoxy)phenyl]-1H-pyrazole-1-carboxamide]: it took a dose of 3.5 mg/kg to reach the 50% effect level in assay [1] (ED50). This compound gave a pKi in assay [2] of 8.00.
`NC(=O)c1coc(-c2ccc(Oc3ccc(F)cc3)cc2)n1` [2-[4-(4-Fluorophenoxy)phenyl]oxazole-4-carboxamide] showed a pKi in assay [3] of 5.88.
For `NC(=O)n1ccc(-c2ccc(Oc3ccccc3)cc2)n1` [3-(4-phenoxyphenyl)-1H-pyrazole-1-carboxamide], the pKi in assay [2] was 7.82.
Consider `Fc1ccc(Oc2ccc(-c3c[nH]cn3)cc2)cc1` [4-[4-(4-Fluorophenoxy)phenyl]-1H-imidazole], for which the ED50 in assay [1] turned out to be 4.2 mg/kg.
On to `NC(=O)n1ccc(-c2ccc(Oc3ccc(F)cc3)c(F)c2)n1` [3-[3-fluoro-4-(4-fluorophenoxy)phenyl]-1H-pyrazole-1-carboxamide], for which, in assay [1], the ED50 was 4.5 mg/kg.
The compound `NC(=O)n1ccc(-c2ccc(Oc3ccc([N+](=O)[O-])cc3)cc2)n1` [3-[4-(4-Nitrophenoxy)phenyl]-1H-pyrazole-1-carboxamide] yielded an ED50 in assay [1] of 2 mg/kg. The compound further had a negative-log Ki (pKi) in assay [2] of 7.96.
In assay [1], `Fc1ccc(Oc2ccc(-c3c[nH]cn3)cc2F)cc1` [4-[4-(4-Fluorophenoxy)-3-fluorophenyl]-1H-imidazole] showed an ED50 of 3.2 mg/kg.
On the same count and under the same terms, then `COC(=O)c1ccc(-c2ccc(Oc3ccc(F)cc3)cc2)[nH]1` [Methyl 5-[4-(4-Fluorophenoxy)phenyl]pyrrole-2-carboxylate], with 6 mg/kg.
In assay [2], “1-[3-[4-(4-Nitrophenoxy)phenyl]-1H-pyrazolyl]ethanone” gave a pKi of 8.05.
Take `CN(C)C(=O)n1ccc(-c2ccc(Oc3ccc(F)cc3)cc2)n1` [3-[4-(4-Fluorophenoxy)phenyl]-1H-pyrazole-1-carboxylic Acid Dimethylamide]: the ED50 in assay [1] came to 8.6 mg/kg.
With `Cc1nc(-c2ccc(Oc3ccc(F)cc3F)cc2)c[nH]1` [4-[4-(2,4-Difluorophenoxy)phenyl]-2-methyl]-1H-imidazole], the “MES p.o. ED50” value in assay [1] is recorded as 7.5 mg/kg.
